In patent US9138434B2, “Octahydrothienoquinoline derivative, pharmaceutical composition comprising derivative, and use of these” (KISSEI PHARMACEUTICAL CO., LTD., priority 2011, dated 2015):

What follows are compounds tested against T1, human dopamine D2 receptor (Homo sapiens, UniProt P14416) (assay: Stimulating activities on human dopamine D2 receptor, [35S]GTPγS binding to hD2R#7 cell membrane homogenates). Conditions: [35S]GTPγS binding, membrane homogenates of HEK293 cells stably expressing human D2 receptor; mean, n=2; read-out: EC50.
T1 construct: accorded to it of human dopamine D2 receptor (NM1-000795) registered on NCBI completely; expressed in transfected cells; membrane homogenates
Assay type: biochemical
Protocol: Identification Test of Stimulating Activities on Human Dopamine D2 Receptor
4) Preparation of Membrane Homogenates from hD2R#7 Cells
(2) Preparation of Membrane Homogenates from hD2R#7 Cells
The cells, which were grown to confluence in 150 mm dishes (IWAKI), were harvested with isotonic buffer (50 mM Tris (Sigma), 2 mM ethylenediamine-tetraacetic acid (Invitrogen), and 125 mM sodium chloride (Wako Pure Chemicals), pH 7.4) and centrifuged at 1880×g and 4° C. for 10 minutes, and the cell pellets were then suspended in isotonic buffer. After being subjected to one cycle of freezing and thawing, the cells were centrifuged at 1880×g and 4° C. for 10 minutes, and the cell pellets were suspended in isotonic buffer. The cells were centrifuged at 1880×g and 4° C. for 10 minutes, and the cell pellets were suspended in isotonic buffer and homogenate buffer (10 mM sodium bicarbonate (Nacalai) and 5 mM ethylenediamine-tetraacetic acid, pH 7.5). The volume ratio of isotonic-to-homogenate buffer was 2. The cells were sonicated and centrifuged at 1880×g and 4° C. for 10 minutes, and the supernatants were ultracentrifuged at 80000×g and 4° C. for 30 minutes. The final cell pellets were suspended in homogenate buffer containing protease inhibitor cocktail (Nacalai) and stored at −80° C. until use. The protein concentration was determined using BCA Protein Assay Kit (Pierce) in accordance with the manufacturer's instructions.
5) Determination of Stimulating Activities of Human Dopamine D2 Receptor
The stimulating activities of human dopamine D2 receptor was determined by measuring the binding potential of [^35S]-guanosine 5′-[gamma-thio]triphosphate ([^35S]GTPγS, PerkinElmer) according to the method described by Newman-Tancredi A. et al. (Naunyn-Schmiedeberg's Arch Pharmacol, 1999, vol. 359, pp. 447-453) with a minor modification. Test compounds and dopamine hydrochloride (Fluka) as positive control were dissolved in dimethyl sulfoxide (CARLBIOCHEM), resulting in 30 mM. The both compounds were diluted with assay buffer (50 mM Tris, 100 mM sodium chloride, 5 mM magnesium chloride (Nacalai), 1 mM ethylenediamine-tetraacetic acid, 1 mM dithiothreitol (Wako Pure Chemicals), 10 μM guanosine diphosphate (Wako Pure Chemicals) and 0.5% bovine serum albumin (Sigma), pH 7.4) to a final concentration of 100 pM (only test compounds), 1 nM, 10 nM, 100 nM, 1 μM, 10 μM and 100 μM (only dopamine hydrochloride). The above membrane homogenates and [^35S]GTPγS were diluted with assay buffer to a final concentration of 0.06 mg/mL and 0.6 nM, respectively. The serial diluted compounds (50 μL), the diluted membrane homogenates (50 μL) and the diluted [^35S]GTPγS (50 μL) were mixed on multi-screen 96-well plate (Millipore) and shaken lightly at room temperature for 60 minutes. The reaction was terminated by vacuum filtration with three times washes of ice-cold wash buffer (50 mM Tris, 100 mM sodium chloride, 5 mM magnesium chloride, and 1 mM ethylenediamine-tetraacetic acid, pH 7.4). After drying the bottoms of the plate at 60° C., MicroScinti-40 (PerkinElmer) (30 μL) was added in the plate. The tops of the plate were sealed by TopSeal-A (PerkinElmer), and the radioactivity was determined in a TopCount NXT (registered mark) (PerkinElmer) after shaking lightly for 5-10 minutes. The data was analyzed by nonlinear regression and sigmoidal dose-response curve fitting using GraphPad PRISM 4.0 (GraphPad Software), and values of EC50 (concentration of the compound producing half the maximal effect of the compound) were calculated. The data was presented as mean value (n=2).

T1 sequence (P14416 whole entry): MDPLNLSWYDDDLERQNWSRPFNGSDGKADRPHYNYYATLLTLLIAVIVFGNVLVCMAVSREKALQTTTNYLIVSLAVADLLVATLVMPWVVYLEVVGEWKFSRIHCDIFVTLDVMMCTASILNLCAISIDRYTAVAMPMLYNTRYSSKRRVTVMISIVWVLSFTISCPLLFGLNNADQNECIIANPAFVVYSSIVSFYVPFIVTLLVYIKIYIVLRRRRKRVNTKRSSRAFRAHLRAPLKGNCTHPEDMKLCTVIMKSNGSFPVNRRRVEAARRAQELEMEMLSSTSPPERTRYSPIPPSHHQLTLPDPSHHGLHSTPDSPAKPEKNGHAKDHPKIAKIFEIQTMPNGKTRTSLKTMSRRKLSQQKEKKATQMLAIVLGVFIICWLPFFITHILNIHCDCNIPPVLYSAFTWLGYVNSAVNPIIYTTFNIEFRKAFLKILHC

EC50 [nM]	Structure (SMILES)
17	CCCCN(C(=O)NCCN(C)C)C(=O)[C@@H]1C[C@@H]2Cc3c(sc(N)c3C#N)C[C@H]2N(C)C1 (relative stereo) [1-24, 1-{[(4aR*,6R*,8aR*)-2-amino-3-cyano-8-methyl-4H,4aH,5H,6H,7H,8H,8aH,9H-thieno[3,2-g]quinolin-6-yl]carbonyl}-1-butyl-3-[2-(dimethylamino)ethyl]urea]
32	CC(C)CCN(C(=O)NCCN(C)C)C(=O)[C@@H]1C[C@@H]2Cc3c(sc(N)c3C#N)C[C@H]2N(C)C1 (relative stereo) [1-43, 1-{[(4aR*,6R*,8aR*)-2-amino-3-cyano-8-methyl-4H,4aH,5H,6H,7H,8H,8aH,9H-thieno[3,2-g]quinolin-6-yl]carbonyl}-3-[2-(dimethylamino)ethyl]-1-(3-methylbutyl)urea]
10	CCCCN(C(=O)NCCN1CCCCC1)C(=O)[C@@H]1C[C@@H]2Cc3c(sc(N)c3C#N)C[C@H]2N(C)C1 (relative stereo) [1-46, 1-{[(4aR*,6R*,8aR*)-2-amino-3-cyano-8-methyl-4H,4aH,5H,6H,7H,8H,8aH,9H-thieno[3,2-g]quinolin-6-yl]carbonyl}-1-butyl-3-[2-(piperidin-1-yl)ethyl]urea]
5	CCN(C(=O)N[C@@H](C)CN(C)C)C(=O)[C@@H]1C[C@@H]2Cc3c(sc(N)c3C#N)C[C@H]2N(C)C1 [1-57, 1-{[(4aR,6R,8aR)-2-amino-3-cyano-8-methyl-4H,4aH,5H,6H, 7H,8H,8aH,9H-thieno[3,2-g]quinolin-6-yl]carbonyl}-3-[(2S)-1-(dimethylamino)propan-2-yl]-1-ethylurea]

Further lines, the compound ahead of its results:

Structure (SMILES)	EC50 [nM]
CCCN(C(=O)NCCN(C)C)C(=O)[C@@H]1C[C@@H]2Cc3c(sc(N)c3C#N)C[C@H]2N(C)C1 [1-1, 1-{[(4aR,6R,8aR)-2-amino-3-cyano-8-methyl-4H,4aH,5H, 6H,7H,8H,8aH,9H-thieno[3,2-g]quinolin-6-yl]carbonyl}-3-[2-(dimethylamino)ethyl]-1-propylurea]	6
CCCCN(C(=O)NCCN(CC)CC)C(=O)[C@@H]1C[C@@H]2Cc3c(sc(N)c3C#N)C[C@H]2N(C)C1 [1-3, 1-{[(4aR,6R,8aR)-2-amino-3-cyano-8-methyl-4H,4aH,5H,6H,7H,8H,8aH,9H-thieno[3,2-g]quinolin-6-yl]carbonyl}-1-butyl-3-[2-(diethylamino)ethyl]urea]	7
CCN(C(=O)NCC(C)(C)CN(C)C)C(=O)[C@@H]1C[C@@H]2Cc3c(sc(N)c3C#N)C[C@H]2N(C)C1 [1-4, 1-{[(4aR,6R,8aR)-2-amino-3-cyano-8-methyl-4H,4aH,5H,6H,7H,8H,8aH,9H-thieno[3,2-g]quinolin-6-yl]carbonyl}-3-[3-(dimethylamino)-2,2-dimethylpropyl]-1-ethlylurea]	3
CCN(C(=O)NCCN(C)C)C(=O)[C@@H]1C[C@@H]2Cc3c(sc(N)c3C#N)C[C@H]2N(C)C1 [1-108, 1-{[(4aR,6R,8aR)-2-amino-3-cyano-8-methyl-4H,4aH,5H,6H,7H,8H,8aH,9H-thieno[3,2-g]quinolin-6-yl]carbonyl}-3-[2-(dimethylamino)ethyl]-1-ethylurea]	6
CCCN(CCC)CCc1cccc2c1CC(=O)N2 [Ropinirole, ropinirole, reference compound]	892
